Measured values from patent US12157749B2, “Borate-based drug and use thereof” (Chengdu Origin Biotechnology Limited Company, priority 2018, dated 2024).

Tests used:
Type in all cases: cell-based
[1] = test system: human multiple myeloma cells KMS-11; assay: Activity test on human multiple myeloma cells KMS-11 (CCK-8, GI50); conditions: KMS-11 cells, 48 h incubation
Method: Cells KMS-11 (human multiple myeloma cells from JCRB ((Japanese Collection of Research Bioresources Cell Bank), AJCRB1179) were cultured to logarithmic growth phase in RPMI 1640 medium containing 10% fetal bovine serum at 37° C. and 5% CO2. The cells were inoculated into a 96-well culture plate in proper quantity per well. After being cultured at 37° C. and 5% CO2 for 24 h, solvent control DMSO or test compounds dissolved in DMSO were added to the cells, wherein the starting concentration of the test compound was 0.3 μM, and diluted 3-fold each time for a total of 6 times to obtain 6 concentration gradients. The cells were incubated with the test compounds at 37° C. and 5% CO2 for 48 h. CCK-8 reagent was added to each well and the cells were incubated at 37° C. for 2 h according to the reagent instructions, and the optical density value of each well was read with spectrophotometer at 450 nm wavelength.
The optical density value of the cell was set as Tz value when the drug had null action on the cell, which represented the cell value when the drug was added. The optical density value of the cells was set as C value after the cells were acted by solvent control DMSO for 48 h; and the optical density value of the cell was set as Ti value after the cells were acted by the test compounds for 48 h. According to the method proposed by NIH—NCI in the United States, the cell response to drugs was calculated as follows: [(Ti−Tz)/(C−Tz)]×100 when Ti≥Tz; [(Ti−Tz)/Tz]×100 when Ti<Tz. According to the above calculation, the GI50 value (the concentration of the test compound as required when the cell growth inhibition rate was […]) was calculated by using the 4-parameter logistic model in XLfit software.

[2] = test system: human multiple myeloma cells RPMI-8226; assay: Activity test on human multiple myeloma cells RPMI-8226 (CCK-8, GI50); conditions: RPMI 8226 cells, 48 h incubation
Method: (§1) Cells RPMI-8226 (human multiple myeloma cells from ATCC (American type culture collection), ATCC CCL-155) and cells MM.1S (human multiple myeloma cells from ATCC (American type culture collection), ATCC CRL-2974) were cultured to logarithmic growth phase in RPMI 1640 medium containing 10% fetal bovine serum at 37° C. and 5% CO2. The cells were inoculated into 96-well culture plates in proper quantity per well. After culturing at 37° C. and 5% CO2 for 24 h, solvent control DMSO or test compounds dissolved in DMSO were added to the wells, wherein the starting concentration of the test compounds were […], and diluted 3-fold each time for a total of 6 times to obtain 6 concentration gradients. The cells were incubated together with the test compounds at 37° C. and 5% CO2 for 48 h. CCK-8 reagent was added to each well and the cells were incubated at 37° C. for 2 h according to the reagent instructions, and the optical density value of each well was read with spectrophotometer at 450 nm wavelength.
(§2) The optical density value of the cells was set as Tz value when the drugs had null action on the cell, which represented the cell value when the drugs were added. The optical density values of the cells were set as C value after the cells were acted by solvent control DMSO for 48 h; and the optical density values of the cell were set as Ti value after the cells were acted by the test compounds for 48 h. According to the method proposed by NIH—NCI in the United States, the cells' response to drugs was calculated as follows: [(Ti−Tz)/(C−Tz)]×100 when Ti≥Tz; [(Ti−Tz)/Tz]×100 when Ti<Tz. According to the above calculation, the GI50 value (the concentration of the test compound required when the cell growth inhibition rate was 50%) was calculated by using the 4-parameter logistic model in XLfit software.

[3] = test system: human multiple myeloma cells MM.1S; assay: Activity test on human multiple myeloma cells MM.1S (CCK-8, GI50); conditions: MM1.S, MM.1S cells, 48 h incubation
Method: as §1, §2

| SMILES | GI50 [1] | GI50 [2] | GI50 [3] |
| --- | --- | --- | --- |
| CC(C)C[C@H](NC(=O)CNC(=O)c1cc(Br)ccc1F)B(O)O | 35.7 nM | – | – |
| CC(C)C[C@H](NC(=O)CNC(=O)c1cc(Br)ccc1F)B1OC(=O)c2ccccc2O1 | 34.1 nM | – | – |
| CC(C)C[C@H](NC(=O)CNC(=O)c1cc(C(F)(F)F)ccc1F)B1OC(=O)C(CC(=O)O)(CC(=O)O)O1 [drawing 62] | – | 0.0182 µM | 0.026 µM |
| CC(C)C[C@H](NC(=O)CNC(=O)c1cc(F)ccc1Br)B1OC(=O)C(CC(=O)O)(CC(=O)O)O1 [drawing 64] | – | 0.0134 µM | 0.012 µM |
| CC(C)C[C@H](NC(=O)CNC(=O)c1cc(Br)ccc1F)B1OC(=O)C(CC(=O)O)(CC(=O)O)O1 [drawing 66] | 39.7 nM | – | – |
| CC(C)C[C@H](NC(=O)CNC(=O)c1cc(C(F)(F)F)ccc1F)B1OC(=O)C(CC(=O)O)(CC(=O)O)O1 [drawing 67] | 57.8 nM | – | – |
| CC(C)C[C@H](NC(=O)CNC(=O)c1cc(Br)ccc1F)B1OC(=O)C(c2ccccc2)O1 (stereo partly shown) [drawing 69] | 29.9 nM | – | – |
| CC(C)C[C@H](NC(=O)CNC(=O)c1cc(Cl)ccc1F)B1OC(=O)C(CC(=O)O)(CC(=O)O)O1 [drawing 71] | 59 nM | – | – |

More lines, now with the values ahead:

| GI50 [1] | GI50 [2] | GI50 [3] | SMILES |
| --- | --- | --- | --- |
| 90.5 nM | – | – | Cc1ccc(F)c(C(=O)NCC(=O)N[C@@H](CC(C)C)B2OC(=O)C(CC(=O)O)(CC(=O)O)O2)c1 |
| 87.8 nM | – | – | CC(C)C[C@H](NC(=O)CNC(=O)c1cc(F)ccc1F)B1OC(=O)C(CC(=O)O)(CC(=O)O)O1 |
| – | 0.0107 µM | 0.0133 µM | CC(C)C[C@H](NC(=O)CNC(=O)c1cc(Br)ccc1Cl)B1OC(=O)C(CC(=O)O)(CC(=O)O)O1 [drawing 60] |
| – | 0.012 µM | 0.0112 µM | CC(C)C[C@H](NC(=O)CNC(=O)c1cc(Br)ccc1F)B1OC(=O)C(CC(=O)O)(CC(=O)O)O1 [drawing 61] |
| – | 0.0122 µM | 0.0128 µM | CC(C)C[C@H](NC(=O)CNC(=O)c1cc(Cl)ccc1Cl)B1OC(=O)C(CC(=O)O)(CC(=O)O)O1 [drawing 63] |
| 35.7 nM | – | – | CC(C)C[C@H](NC(=O)CNC(=O)c1cc(F)ccc1Br)B1OC(=O)C(CC(=O)O)(CC(=O)O)O1 [drawing 70] |
